Data: ChEMBL document CHEMBL1130915, “Kampanols: novel Ras farnesyl-protein transferase inhibitors from Stachybotrys kampalensis” (Bioorg Med Chem Lett, 1998)

What was measured:
[1] = Inhibition of Geranylgeranyl transferase type I
[2] = molecular target: Protein farnesyltransferase (Homo sapiens, UniProt P49354+P49356); test: Inhibition of human recombinant farnesyltransferase; assay type: protein-complex assay

IC50 [1]	IC50 [2]	Compound
> 100 µM	13 µM	CC(=O)O[C@H]1CC[C@]2(C)[C@H]3Cc4c(O)cc5c(c4O[C@@]3(C)CC[C@H]2C1(C)C)COC5=O [KAMPANOL A]
> 100 µM	7 µM	COC1OC(OC)c2c1cc(O)c1c2O[C@@]2(C)CC[C@H]3C(C)(C)[C@@H](OC(C)=O)CC[C@]3(C)[C@H]2C1 (stereo partly drawn)
> 100 µM	460 µM	CC(=O)O[C@H]1CC[C@]2(C)[C@H]3Cc4c(O)cc(CO)c(CO)c4O[C@@]3(C)CC[C@H]2C1(C)C
> 100 µM	560 µM	CC(=O)O[C@H]1CC[C@]2(C)[C@H]3Cc4c(O)cc(C=O)c(C=O)c4O[C@@]3(C)CC[C@H]2C1(C)C
